Some test systems named below: SNB-19; EKVX; SN12C; BT-549; NCI/ADR-RES; MDA-N; UACC-62; SK-MEL-28; RXF 393; LOX IMVI; HL-60; CCRF-CEM; U-251; M14; SF-539; SK-OV-3; Hs-578T; MDA-MB-231; NCI-H460; HOP-62.
Holding throughout (assay): growth of human tumour cells (NCI), 48 h

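How tested: cells in 96-well plates exposed to compound for 48 hours at five concentrations. At the GI50, growth is halved.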 Activity calls are given as the source filed them. Cut-off read from the data, not from the text of the source: active = GI50 up to about 1.1 µM and inactive = higher.

Take `Cc1cc(Br)cc(C)c1NC(=O)C(=O)C1C(=O)C(CC2C(=O)c3ccccc3C2=O)C(=O)CC1(C)C` (stereo not given): the GI50 was > 100 µM (inactive) with SNB-19; 50.8 µM (inactive) in the assay on EKVX; > 100 µM (inactive) in the assay on SN12C; > 100 µM (inactive) in the assay on BT-549; 86.5 µM (inactive) in the assay on NCI/ADR-RES; > 100 µM (inactive) with MDA-N. The GI50 in the assay on UACC-62 is 90.2 µM (inactive); in the assay with SK-MEL-28, > 100 µM (inactive); in the assay on RXF 393, 3.66 µM (inactive); with LOX IMVI, > 100 µM (inactive); in the assay on HL-60, 28.5 µM (inactive); in the assay with CCRF-CEM, 41.7 µM (inactive). The GI50 in the assay on U-251 was > 100 µM (inactive); with M14 it was > 100 µM (inactive); with SF-539 it was > 100 µM (inactive); in the assay with SK-OV-3 it was > 100 µM (inactive); with Hs-578T, > 100 µM (inactive); in the assay on MDA-MB-231, 55 µM (inactive). Further, the GI50 in the assay on NCI-H460 and in the assay on HOP-62 was > 100 µM (inactive) each time.
As to `CC(NNC(=O)c1ccncc1)c1ccc(Cl)c(Cl)c1` (stereo not given), the GI50 is > 100 µM (inactive) in the assay with SNB-19; > 100 µM (inactive) in the assay with EKVX; > 100 µM (inactive) in the assay with SN12C; > 100 µM (inactive) in the assay on BT-549; > 100 µM (inactive) in the assay on NCI/ADR-RES; 95.3 µM (inactive) in the assay on MDA-N. Besides, the GI50 was > 100 µM (inactive) with UACC-62; > 100 µM (inactive) in the assay on SK-MEL-28; > 100 µM (inactive) with RXF 393; > 100 µM (inactive) in the assay with LOX IMVI; 34.8 µM (inactive) with HL-60; 43.4 µM (inactive) in the assay with CCRF-CEM. Also, the GI50 is > 100 µM (inactive) in the assay on U-251; 67.9 µM (inactive) with M14; > 100 µM (inactive) with SF-539; 19.6 µM (inactive) in the assay on SK-OV-3; 86.9 µM (inactive) in the assay with Hs-578T; > 100 µM (inactive) in the assay on MDA-MB-231. Also, the GI50 with NCI-H460 and in the assay with HOP-62 was > 100 µM (inactive) throughout.
For the compound `CCOC1c2cc(OC)c(OC)cc2-c2ccc3ccccc3c2N1C` (stereo not given), the GI50 in the assay on SNB-19 was 9.86 µM (inactive); with EKVX, 6.27 µM (inactive); with SN12C, 7.76 µM (inactive); in the assay on BT-549, 12.6 µM (inactive); in the assay with NCI/ADR-RES it was 29.7 µM (inactive); in the assay on MDA-N, 10.6 µM (inactive). Besides, the GI50 was 12.6 µM (inactive) in the assay with UACC-62; 13.4 µM (inactive) with SK-MEL-28; 21.7 µM (inactive) with RXF 393; 14.9 µM (inactive) in the assay with LOX IMVI; 44.1 µM (inactive) in the assay on HL-60; 18 µM (inactive) in the assay with CCRF-CEM. Moreover, the GI50 in the assay with U-251 is 6.41 µM (inactive); in the assay on M14, 19.3 µM (inactive); in the assay on SF-539 it was 18.2 µM (inactive); in the assay on SK-OV-3, 22 µM (inactive); with Hs-578T, 6.4 µM (inactive); in the assay with MDA-MB-231 it was 13.5 µM (inactive). The GI50 in the assay with NCI-H460 was 12.2 µM (inactive); with HOP-62, 15.7 µM (inactive).
As to `O=[N+]([O-])c1ccc2c(c1)/C(=N/N=C1c3ccccc3Cc3ccccc31)c1cc([N+](=O)[O-])cc([N+](=O)[O-])c1-2`, the GI50 was 7.33 µM (inactive) in the assay on SNB-19; 5.12 µM (inactive) in the assay with EKVX; 1.67 µM (inactive) with SN12C; 1.52 µM (inactive) in the assay with BT-549; 2.19 µM (inactive) in the assay on NCI/ADR-RES; 3.36 µM (inactive) in the assay with MDA-N. In addition, the GI50 in the assay on UACC-62 was 2.62 µM (inactive); in the assay on SK-MEL-28, 3.45 µM (inactive); in the assay with RXF 393, 2.61 µM (inactive); in the assay on LOX IMVI, 2.24 µM (inactive); in the assay on HL-60, 2.26 µM (inactive); with CCRF-CEM it was 1.75 µM (inactive). The GI50 is 3.24 µM (inactive) in the assay on U-251; 2.49 µM (inactive) in the assay with M14; 2.99 µM (inactive) in the assay on SF-539; 14.2 µM (inactive) in the assay on SK-OV-3; 2.86 µM (inactive) in the assay on Hs-578T; 2.62 µM (inactive) in the assay on MDA-MB-231. Further, the GI50 is 3.14 µM (inactive) in the assay with NCI-H460 and 3.01 µM (inactive) with HOP-62.
On to `COC(=O)c1ccccc1C#CC#Cc1ccccc1C(=O)OC`, for which the GI50 in the assay on SNB-19, in the assay on EKVX, in the assay with SN12C, with BT-549, in the assay on NCI/ADR-RES and in the assay on MDA-N was > 10 µM (inactive) in each case. For the same compound, the GI50 was > 10 µM (inactive) in the assay with UACC-62; > 10 µM (inactive) in the assay on SK-MEL-28; > 10 µM (inactive) in the assay with RXF 393; 7 µM (inactive) with LOX IMVI; 4.76 µM (inactive) in the assay with HL-60; > 10 µM (inactive) with CCRF-CEM. The GI50 in the assay with U-251, in the assay on M14, with SF-539, with SK-OV-3, in the assay on Hs-578T and in the assay on MDA-MB-231 was > 10 µM (inactive) in each case. Further, the GI50 with NCI-H460 and in the assay on HOP-62 was > 10 µM (inactive) in each case.
As to `O=C1CC(c2ccccc2Cl)C2(C(=O)NC(=S)NC2=O)C(c2ccccc2Cl)C1` (stereo not given), the GI50 in the assay with SNB-19 was 13.2 µM (inactive); with EKVX, 37.6 µM (inactive); in the assay with SN12C it was 25.9 µM (inactive); in the assay with BT-549, 30.3 µM (inactive); with NCI/ADR-RES, 68.5 µM (inactive); with MDA-N, 26.8 µM (inactive). The GI50 was 19.8 µM (inactive) with UACC-62; 49 µM (inactive) in the assay on SK-MEL-28; 16.9 µM (inactive) in the assay on RXF 393; 16.9 µM (inactive) in the assay on LOX IMVI; 36.5 µM (inactive) in the assay with HL-60; 35.6 µM (inactive) in the assay with CCRF-CEM. For the same compound, the GI50 in the assay with U-251 was 15.3 µM (inactive); in the assay with M14, 17.1 µM (inactive); in the assay on SF-539, 58.7 µM (inactive); in the assay on SK-OV-3, 43 µM (inactive); in the assay on Hs-578T it was 0.465 µM (active); in the assay with MDA-MB-231, 27.2 µM (inactive). Moreover, the GI50 with NCI-H460 is 20 µM (inactive); in the assay on HOP-62 it was 34.2 µM (inactive).
Take `Cc1csc2nc(-c3cccc([N+](=O)[O-])c3)c(/C=N/N=C(N)N)n12`: the GI50 in the assay on SNB-19 is 1.9 µM (inactive); with EKVX, 1.55 µM (inactive); in the assay on SN12C, 1.69 µM (inactive); in the assay on BT-549, 1.1 µM (active); in the assay with NCI/ADR-RES, 6.27 µM (inactive); with MDA-N, 1.67 µM (inactive). The GI50 with UACC-62 was 1.46 µM (inactive); in the assay on SK-MEL-28 it was 1.71 µM (inactive); in the assay with RXF 393 it was 1.7 µM (inactive); in the assay on LOX IMVI, 1.81 µM (inactive); in the assay with HL-60, 1.25 µM (inactive); with CCRF-CEM it was 1.92 µM (inactive). In addition, the GI50 is 1.67 µM (inactive) in the assay on U-251; 1.71 µM (inactive) with M14; 2.29 µM (inactive) in the assay with SF-539; 1.82 µM (inactive) in the assay with SK-OV-3; 2.18 µM (inactive) in the assay on Hs-578T; 1.55 µM (inactive) in the assay with MDA-MB-231. The GI50 in the assay on NCI-H460 is 3.2 µM (inactive); in the assay with HOP-62, 1.71 µM (inactive).
With `CCN(C)c1nc(N(C)CC)c2nc(N(C)CC)nc(N(C)CC)c2n1`, the GI50 with SNB-19, in the assay with EKVX, with SN12C, in the assay with BT-549, in the assay on NCI/ADR-RES and in the assay on MDA-N was > 100 µM (inactive) throughout. Moreover, the GI50 with UACC-62, in the assay on SK-MEL-28, in the assay with RXF 393, with LOX IMVI, in the assay on HL-60 and with CCRF-CEM was > 100 µM (inactive) throughout. For the same compound, the GI50 in the assay with U-251, in the assay on M14, with SF-539, in the assay with SK-OV-3, in the assay on Hs-578T and in the assay on MDA-MB-231 was > 100 µM (inactive) each time. The GI50 with NCI-H460 and with HOP-62 was > 100 µM (inactive) each time.
For `O=C1c2ccccc2-c2nnc3c(c21)Cc1ccccc1C3`, the GI50 with SNB-19, in the assay on EKVX, in the assay with SN12C, in the assay on BT-549, in the assay with NCI/ADR-RES and with MDA-N was > 10 µM (inactive) in each case. Besides, the GI50 in the assay with UACC-62, with SK-MEL-28, in the assay on RXF 393, in the assay with LOX IMVI, in the assay with HL-60 and in the assay on CCRF-CEM was > 10 µM (inactive) each time. The GI50 in the assay with U-251, in the assay with M14, in the assay with SF-539, with SK-OV-3, in the assay on Hs-578T and with MDA-MB-231 was > 10 µM (inactive) in each case. Further, the GI50 with NCI-H460 and with HOP-62 was > 10 µM (inactive) in each case.
With `CN1c2ccccc2S(=O)(=O)n2c(COc3ccccc3)nnc21`, the GI50 is > 100 µM (inactive) in the assay with SNB-19; > 100 µM (inactive) in the assay with EKVX; > 100 µM (inactive) in the assay with SN12C; 64.4 µM (inactive) in the assay on BT-549; > 100 µM (inactive) in the assay on NCI/ADR-RES; > 100 µM (inactive) in the assay on MDA-N. Moreover, the GI50 with UACC-62 is > 100 µM (inactive); with SK-MEL-28 it was > 100 µM (inactive); in the assay with RXF 393, > 100 µM (inactive); in the assay on LOX IMVI, > 100 µM (inactive); in the assay on HL-60 it was 62.5 µM (inactive); with CCRF-CEM, > 100 µM (inactive). For the same compound, the GI50 in the assay on U-251 was > 100 µM (inactive); in the assay on M14 it was > 100 µM (inactive); in the assay on SF-539, 62.8 µM (inactive); with SK-OV-3, > 100 µM (inactive); in the assay with Hs-578T, > 100 µM (inactive); with MDA-MB-231, > 100 µM (inactive). For the same compound, the GI50 in the assay on NCI-H460 was > 100 µM (inactive); in the assay on HOP-62 it was 35.4 µM (inactive).

(Values after ChEMBL document CHEMBL1201862, “PubChem BioAssay data set” (2004).)
